Laboratory results from US20180244629A1, “Compounds And Compositions For The Treatment Of Cancer” (The Broad Institute, Inc., priority 2013, published 2018).
Where two headings read alike, the source gives them in different places.

How the values were obtained:
A549 cells = assay: A549 Cytotoxicity Assay (Cell Titer Glo viability); assay type: cell-based; settings: Homo sapiens, A549
Method: A549 Cytotoxicity Assay Protocol. Day 0: A549 cells (ATCC, A549 CCL-185) are grown to 95% confluence in RPMI, 10% FBS/Pen/Strep/L-Glutamine. Day 1: Plate cells (1000 per well) in 40 μl culturing media using Corning 384-well plates (3570), incubate in standard TC conditions (5% CO2, 95% humidity, 37° C.) for 24 h. Day 2: Dilute each concentration of a half-log serial dilution of compound (1 mM-100 nM) 1:200 in culturing media and add […] (50 μl total volume) of that dilution to designated wells (8 replicates per concentration). The final dilution will be 1000×([…]). Day 4: Remove plate from incubator to cool for 20 minutes to room temperature. Add 40 μl of a 25% Promega Cell Titer Glo solution (diluted 1:3 with room temperature PBS) with Thermo combi or multichannel and incubate for 10 min. Read on Perkin-Elmer EnVision with US LUM settings for 0.1 second per well.
A549 Assay Protocol. Day 0: A549 cells (ATCC) are grown in a Triple flask (NUNC) to ˜95% confluence (TrypLE Phenol Red free) and resuspended for dispensing at 25,000 cells/mL of DMEM, 10% FBS/Pen/Strep/L-Glutamine (using the TAP Compact SelecT automated cell culture system). Day 1: Plate cells at 1000 per well in 40 uL media (DMEM/10% FBS/Pen/Strep/L-Glutamine) using Corning 8867BC 384 well plates; incubate in standard TC conditions (5% CO2; 95% humidity, 37° C.) for 24 hours (Compact SelecT). Day 2: Add 100 nL compound per well at dose into 40 uL assay volume using a pin tool (CyBi Well). Pin 100 nL cytotoxic compounds, mitoxantrone (CID 4212) to positive control wells to a final concentration of 10 μM (100 nL 4 mM DMSO stock). Incubate for […] at 37° C. in Liconic incubator, 95% humidity 5% CO2. Day 4: Remove plate from incubator, cool for 15 minutes to room temperature; add 20 μL 50% Promega CellTiterGlo (diluted 1:1 with PBS, pH 7.4) with Thermo Combi. Incubate at room temperature for 5 minutes. Read plates on Perkin-Elmer EnVision with standard luminescence settings for 0.1 sec per well.
(§1) Compounds as shown were tested against various cells lines in vitro according to the methods described herein. Cells are plated in 384-well format in a total volume of 40 μl. Indicated compound concentrations were added 24 hrs after plating the cells. After 48 hrs cell viability was determined using Cell Titer Glo® Luminescent Cell Viability Assay.
as §1, with “Known PDE3 inhibitors” for “Compounds”, “shown below” for “shown”

HeLa cells = assay: HeLa Cytotoxicity Assay (Cell Titer Glo viability); assay type: cell-based; settings: Homo sapiens, HeLa
Method: HeLa Cytotoxicity Assay Protocol: Day 0: HeLa cells (ATCC, HeLa CCL-2) are grown to 95% confluence in DMEM, 10% FBS/Pen/Strep/L-Glutamine. Day 1: Plate cells (1000 per well) in 40 μl culturing media using Corning 384-well plates (3570), incubate in standard TC conditions (5% CO2, 95% humidity, 37 degrees C.) for 24 hours. Day 2: Dilute each concentration of a half-log serial dilution of compound (1 mM-100 nM) 1:200 in culturing media and add 10 μl (50 μl total volume) of that dilution to designated wells (8 replicates per concentration). The final dilution will be 1000×(1 μM-100 pM). Day 4: Remove plate from incubator to cool for 20 minutes to room temperature. Add 40 μl of a 25% Promega Cell Titer Glo solution (diluted 1:3 with room temperature PBS) with Thermo combi or multichannel and incubate for 10 minutes. Read on Perkin-Elmer EnVision with US LUM settings for 0.1 second per well.
as §1
as §1, with “Known PDE3 inhibitors” for “Compounds”, “shown below” for “shown”

[1] = Mean ± SD (n = 3), read-out: Potency (EC50 nM) A549
[2] = Mean ± SD (n = 3), read-out: Potency (EC50 nM) HeLa

Structure (SMILES) | EC50 (A549 cells; 48 hrs, Cell Titer Glo, read-out: EC50 A549) | EC50 (HeLa cells; 48 h, Cell Titer Glo, read-out: EC50 HeLa) | EC50 (A549 cells; [1]) | EC50 (HeLa cells; [2])
C[C@@H]1CC(=O)NN=C1c1ccc(N)c(Br)c1 | > 10000 nM | > 10000 nM | – | –
CCN(CC)c1ccc(C2=NNC(=O)CC2C)cc1 (centres unmarked) | – | – | > 10000 nM | 8.8 ± 2.3 nM
CCN(CC)c1ccc(C2=NNC(=O)C[C@H]2C)cc1 | – | – | > 10000 nM | 3.8 ± 0.8 nM
CCNc1ccc(C2=NNC(=O)C[C@H]2C)cc1 | – | – | > 10000 nM | 71 ± 7 nM
CCN(CC)c1ccc(C2=NNC(=O)CC2C)cc1N (centres unmarked) | – | – | > 10000 nM | 240 ± 60 nM
CCN(CC)c1ccc(C2=NNC(=O)CC2C)cc1NC(C)=O (centres unmarked) | – | – | > 10000 nM | > 1000 nM
CC1CC(=O)NN=C1c1ccc(N2CCOCC2)cc1 (centres unmarked) | – | – | > 10000 nM | 36 ± 9 nM
CC1CC(=O)NN=C1c1ccc(N2CCOCC2)c(F)c1 (centres unmarked) | – | – | > 10000 nM | 2.8 ± 0.7 nM
C[C@H]1CC(=O)NN=C1c1ccc(N2CCOCC2)c(F)c1 | – | – | > 10000 nM | > 1000 nM
CC(=O)N1CCN(c2ccc(C3=NNC(=O)C[C@H]3C)cc2F)CC1 | – | – | > 10000 nM | > 1000 nM
C[C@@H]1CC(=O)NN=C1c1ccc(N2CCN(C)CC2)cc1 | – | – | > 10000 nM | 310 ± 120 nM
C[C@@H]1CC(=O)NN=C1c1ccc(N2CCCCC2)cc1 | – | – | > 10000 nM | 3.9 ± 0.6 nM
C[C@@H]1CC(=O)NN=C1c1ccc(-n2cnnc2)cc1 | – | – | > 10000 nM | > 1000 nM
Cc1nc2ccc(C3=NNC(=O)C[C@H]3C)cc2[nH]1 | – | – | > 10000 nM | > 1000 nM
CC(=O)Nc1ccc(C2=NNC(=O)C[C@H]2C)cc1Cl | – | – | > 10000 nM | 30 nM
CC(=O)Nc1ccc(C2=NNC(=O)C[C@H]2C)cc1F | – | – | > 10000 nM | > 1000 nM

Structure (SMILES) | EC50 (A549 cells; 48 hrs, Cell Titer Glo, read-out: EC50 A549) | EC50 (HeLa cells; 48 h, Cell Titer Glo, read-out: EC50 HeLa) | EC50 (A549 cells; [1]) | EC50 (HeLa cells; [2])
C#Cc1cc(C2=NNC(=O)C[C@H]2C)ccc1NC(C)=O | – | – | > 10000 nM | 65 ± 10 nM
CC(=O)Nc1ccc(C2=NNC(=O)C[C@H]2C)cc1C(C)=O | – | – | > 10000 nM | 130 ± 10 nM
CC(=O)Nc1ccc(C2=NNC(=O)C[C@H]2C)cc1N | – | – | > 10000 nM | > 1000 nM
C[C@@H]1CC(=O)NN=C1c1ccc(N2CCCOC2=O)cc1 | – | – | > 10000 nM | > 1000 nM
C[C@@H]1CC(=O)NN=C1c1ccc(N2CCCCS2(=O)=O)cc1 | – | – | > 10000 nM | 330 ± 6 nM
C[C@@H]1CC(=O)NN=C1c1ccccc1 | – | – | > 10000 nM | 430 ± 50 nM
CC1CC(=O)NN=C1c1ccc(F)cc1 (centres unmarked) | – | – | > 10000 nM | 410 ± 270 nM
C[C@@H]1CC(=O)NN=C1c1ccc(Cl)cc1 | – | – | > 10000 nM | 33 ± 5 nM
CC1CC(=O)NN=C1c1ccc(F)c(F)c1 (centres unmarked) | – | – | > 10000 nM | 64 ± 3 nM
C[C@H]1CC(=O)NN=C1c1ccc(F)c(F)c1 | – | – | > 10000 nM | > 1000 nM
C[C@@H]1CC(=O)NN=C1c1ccc(I)cc1 | – | – | > 10000 nM | 7.1 ± 0.8 nM
C/C=C/c1ccc(C2=NNC(=O)C[C@H]2C)cc1 | – | – | > 10000 nM | 8.8 ± 1.1 nM
CCCc1ccc(C2=NNC(=O)C[C@H]2C)cc1 | – | – | > 10000 nM | 16 ± 1 nM
CC1CC(=O)NN=C1c1ccc(C2=CCCCC2)cc1 (centres unmarked) | – | – | > 10000 nM | 2.2 ± 0.4 nM
CC(=O)Nc1ccc(-c2n[nH]c(=O)cc2C)cc1 | – | – | > 10000 nM | > 1000 nM
